# Molecular target: Signal transducer and activator of transcription 3 (Homo sapiens, UniProt P40763)
# Assay: Inhibition of STAT3 in IL-6-stimulated human HepG2 cells treated for 1 hr prior to IL-6 challenge measured after 5.5 hrs by luciferase reporter gene assay
# Chain of Signal transducer and activator of transcription 3 (P40763 whole entry): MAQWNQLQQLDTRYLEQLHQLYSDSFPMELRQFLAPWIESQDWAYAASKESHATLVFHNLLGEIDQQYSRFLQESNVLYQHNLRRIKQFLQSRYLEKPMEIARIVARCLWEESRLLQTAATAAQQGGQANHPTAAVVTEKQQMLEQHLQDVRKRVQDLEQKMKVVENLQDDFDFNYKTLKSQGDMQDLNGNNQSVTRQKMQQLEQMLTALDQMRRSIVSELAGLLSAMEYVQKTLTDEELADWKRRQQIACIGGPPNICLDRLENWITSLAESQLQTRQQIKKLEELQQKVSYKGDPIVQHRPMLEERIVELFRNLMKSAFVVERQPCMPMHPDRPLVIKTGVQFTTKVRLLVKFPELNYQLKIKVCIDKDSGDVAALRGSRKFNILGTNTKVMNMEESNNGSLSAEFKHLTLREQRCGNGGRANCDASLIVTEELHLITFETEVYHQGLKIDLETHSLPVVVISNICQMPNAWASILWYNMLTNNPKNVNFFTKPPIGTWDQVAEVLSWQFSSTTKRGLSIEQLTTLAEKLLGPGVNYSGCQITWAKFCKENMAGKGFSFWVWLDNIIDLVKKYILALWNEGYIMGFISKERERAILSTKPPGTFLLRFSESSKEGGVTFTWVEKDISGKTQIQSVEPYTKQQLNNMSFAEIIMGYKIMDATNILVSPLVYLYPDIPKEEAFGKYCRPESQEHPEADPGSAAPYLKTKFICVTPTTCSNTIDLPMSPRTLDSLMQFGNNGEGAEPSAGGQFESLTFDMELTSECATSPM
compound,measurement,value
CCC(Sc1nc2ccc(NC(=O)c3ccc(OC)cc3)cc2s1)C(=O)Nc1ccc(Br)cc1 (stereo unspecified),IC50,3.57 µM

# From BindingDB's records for doi:10.1016/j.ejmech.2013.01.009 (Fudan University, 2013)
